From patent US8722849B2, “Polypeptides” (Novo Nordisk A/S, priority 2011, dated 2014)
Converted amounts (≈) assume the structure as drawn. Read-outs that look alike come from different tables or passages of the source. Starred links: 1 amine or outer side, 2 acyl side, 3 side chain; linkers in the order of their positions; H or OH if unused. Positions of bridges follow the written chain, without caps; N, C: chain ends. Residues, ends and D or L forms follow the SMILES beside them. *: point of attachment. C20 diacid = O=C(O)CCCCCCCCCCCCCCCCCCC(=O)*; γGlu = O=C(O)[C@H](CCC(=O)[*:2])N[*:1]

Legend:
[1] = target: T1, human calcitonin receptor (Homo sapiens, UniProt P30988); experiment: Assay (II)a functional CRE-luciferase assay, human calcitonin receptor; format: cell-based; details: Table 7; human calcitonin (CTa) receptor
T1 construct: expressed in transfected cells; host or cells: BHK570
T1 sequence (P30988 25-474): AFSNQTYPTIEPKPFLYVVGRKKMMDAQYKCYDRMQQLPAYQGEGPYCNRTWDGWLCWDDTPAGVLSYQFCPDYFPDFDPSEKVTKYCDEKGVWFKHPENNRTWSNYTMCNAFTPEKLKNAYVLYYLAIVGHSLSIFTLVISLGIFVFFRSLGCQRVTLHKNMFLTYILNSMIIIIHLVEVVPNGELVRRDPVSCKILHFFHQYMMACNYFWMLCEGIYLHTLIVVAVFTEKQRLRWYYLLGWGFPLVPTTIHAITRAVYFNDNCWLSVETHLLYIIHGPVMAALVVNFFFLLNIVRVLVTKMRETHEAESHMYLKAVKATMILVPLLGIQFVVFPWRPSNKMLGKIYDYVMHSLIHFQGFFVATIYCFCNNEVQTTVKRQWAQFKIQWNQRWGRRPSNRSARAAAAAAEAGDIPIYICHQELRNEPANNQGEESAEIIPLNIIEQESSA

[2] = Assay (III) ThT fibrillation assay for physical stability; format: physicochemical
Summary of the method: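 Freshly prepared formulations, pH-adjusted, with 1 μM ThT; four or eight replicates incubated at 37 °C under 960 rpm orbital shaking. Fluorescence (ex 444/em 485 nm) read every 20 min; […]. Peptide concentration measured by RP-HPLC before and after the run.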

[3] = Assay (IV) determination of solubility; format: physicochemical
Summary of the method: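 Eight 100 mM buffers (glycylglycine pH 3.0–5.0, bistrispropane pH 6.0–8.0) each received an equal volume of polypeptide dissolved in water at ~500 nmol/ml. Soluble polypeptide was measured by HPLC following 18 hours at room temperature and centrifugation.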

[4] = target: T2, human amylin receptor (amylin 3(a) receptor: human calcitonin receptor + RAMP-3) (Homo sapiens, UniProt O60896+P30988); experiment: Assay (II)a functional CRE-luciferase assay, human amylin receptor; format: cell-based; details: Table 2; BHK amylin 3(a)-receptor/CRE-luc cells
T2 construct: expressed in transfected cells; host or cells: BHK570
T2 sequence (P30988 25-474): T1 sequence (P30988 25-474)
T2 sequence (O60896 24-148 partner): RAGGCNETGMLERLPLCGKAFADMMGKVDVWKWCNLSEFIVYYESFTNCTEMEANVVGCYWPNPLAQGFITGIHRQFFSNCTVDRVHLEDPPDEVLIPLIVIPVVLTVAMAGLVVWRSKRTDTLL

[5] = bistrispropane buffer, pH 6, pH 6.0, read-out: Solubility pH 6.0
[6] = bistrispropane buffer, pH 6.5, pH 6.5, read-out: Solubility pH 6.5
[7] = bistrispropane buffer, pH 7, pH 7.0, 18 hours at room temperature, Table 3, read-out: Solubility pH 7.0
[8] = bistrispropane buffer, pH 7, pH 7.0, read-out: Solubility pH 7.0
[9] = bistrispropane buffer, pH 7.5, pH 7.5, read-out: Solubility pH 7.5
[10] = bistrispropane buffer, pH 8, pH 8.0, read-out: Solubility pH 8.0
[11] = glycylglycine buffer, pH 3, pH 3.0, read-out: Solubility pH 3.0
[12] = glycylglycine buffer, pH 4, pH 4.0, 18 hours at room temperature, Table 2, read-out: Solubility pH 4.0
[13] = glycylglycine buffer, pH 4, pH 4.0, read-out: Solubility pH 4.0
[14] = glycylglycine buffer, pH 5, pH 5.0, read-out: Solubility pH 5.0

Compound | EC50 [1] [nM] | ThT pH 4.0 lag time ([2]; Table 8) [h] | ThT pH 4.0 lag time ([2]; ThT fibrillation assay) [h] | ThT pH 4.0 lag time (h) ([2]; ThT fibrillation assay) | solubility at 18 h [3, 5] [µM] | solubility at 18 h [3, 6] [µM] | solubility at 18 h [3, 7] [µM] | solubility at 18 h ([3]; bistrispropane buffer, pH 7, pH 7.0, Table 8, read-out: Solubility pH 7.0) [µM] | solubility at 18 h [3, 8] [µM] | solubility at 18 h [3, 9] [µM] | solubility at 18 h [3, 10] [µM] | solubility at 18 h [3, 11] [µM] | solubility at 18 h [3, 12] [µM] | solubility at 18 h [3, 13] [µM] | solubility at 18 h [3, 14] [µM] | EC50 [4] [nM]
CC[C@H](C)[C@H](NC(=O)[C@@H]1CCCN1C(=O)CNC(=O)[C@H](Cc1ccccc1)NC(=O)[C@H](CC(N)=O)NC(=O)[C@H](CC(N)=O)NC(=O)[C@H](CO)NC(=O)[C@H](CO)NC(=O)[C@H](Cc1c[nH]cn1)NC(=O)[C@H](Cc1c[nH]cn1)NC(=O)[C@H](CC(C)C)NC(=O)[C@H](Cc1ccccc1)NC(=O)[C@H](CCC(=O)O)NC(=O)[C@H](C)NC(=O)[C@H](CC(C)C)NC(=O)[C@H](CCCNC(=N)N)NC(=O)[C@H](CCC(N)=O)NC(=O)[C@@H](NC(=O)[C@H](C)NC(=O)[C@@H]1CSSC[C@H](NC(=O)CC[C@H](NC(=O)CCCCCCCCCCCCCCCCCCC(=O)O)C(=O)O)C(=O)N[C@@H](CC(N)=O)C(=O)N[C@@H]([C@@H](C)O)C(=O)N[C@@H](C)C(=O)N[C@@H]([C@@H](C)O)C(=O)N1)[C@@H](C)O)C(=O)N[C@@H](CC(C)C)C(=O)N1CCC[C@H]1C(=O)N1CCC[C@H]1C(=O)N[C@H](C(=O)N[C@@H](CC(N)=O)C(=O)N[C@H](C(=O)NCC(=O)N[C@@H](CO)C(=O)N[C@@H](Cc1c[nH]cn1)C(=O)N[C@H](C(=O)N[C@@H](Cc1ccc(O)cc1)C(N)=O)[C@@H](C)O)C(C)C)[C@@H](C)O [Example 75, N-alpha-[(S)-4-Carboxy-4-(19-carboxynonadecanoylamino)butyryl]-[des1,Glu14,His17,His35]-pramlintide] ({C20 diacid-γGlu}-CNTATCATQRLAEFLHHSSNNFGPILPPTNVGSHTY-NH2; disulfide 1-6 (inferred)) | 0.286 | 28 | 28 | 28 | > 200 | 193 (≈ 840 µg/mL) | > 200 | > 200 | > 200 | > 200 | > 200 | > 200 | > 200 | > 200 | > 200 | 0.365
CC[C@H](C)[C@H](NC(=O)[C@@H]1CCCN1C(=O)CNC(=O)[C@H](Cc1ccccc1)NC(=O)[C@H](CC(N)=O)NC(=O)[C@H](CC(N)=O)NC(=O)[C@H](CO)NC(=O)[C@H](CO)NC(=O)[C@H](CCCNC(=N)N)NC(=O)[C@H](Cc1c[nH]cn1)NC(=O)[C@H](CC(C)C)NC(=O)[C@H](Cc1ccccc1)NC(=O)[C@H](CCC(=O)O)NC(=O)[C@H](C)NC(=O)[C@H](CC(C)C)NC(=O)[C@H](CCCNC(=N)N)NC(=O)[C@H](CCC(N)=O)NC(=O)[C@@H](NC(=O)[C@H](C)NC(=O)[C@@H]1CSSC[C@H](NC(=O)[C@H](Cc2c[nH]cn2)NC(=O)CC[C@H](NC(=O)CCCCCCCCCCCCCCCCCCC(=O)O)C(=O)O)C(=O)N[C@@H](CC(N)=O)C(=O)N[C@@H]([C@@H](C)O)C(=O)N[C@@H](C)C(=O)N[C@@H]([C@@H](C)O)C(=O)N1)[C@@H](C)O)C(=O)N[C@@H](CC(C)C)C(=O)N1CCC[C@H]1C(=O)N1CCC[C@H]1C(=O)N[C@H](C(=O)N[C@@H](CC(N)=O)C(=O)N[C@H](C(=O)NCC(=O)N[C@@H](CO)C(=O)N[C@@H](Cc1c[nH]cn1)C(=O)N[C@H](C(=O)N[C@@H](Cc1ccc(O)cc1)C(N)=O)[C@@H](C)O)C(C)C)[C@@H](C)O [Example 77, N-alpha-[(S)-4-Carboxy-4-(19-carboxynonadecanoylamino)butyryl]-[His1,Glu14,His17,Arg18,His35]-pramlintide] ({C20 diacid-γGlu}-HCNTATCATQRLAEFLHRSSNNFGPILPPTNVGSHTY-NH2; disulfide 2-7 (inferred); C-terminus assumed) | 0.11 |  | >45 | >45 | 185 (≈ 834 µg/mL) | 23 (≈ 104 µg/mL) |  |  | 5 (≈ 22.5 µg/mL) | 33 (≈ 149 µg/mL) | 94 (≈ 424 µg/mL) | > 200 | > 200 | > 200 | > 200 | 0.066
CC[C@H](C)[C@H](NC(=O)[C@@H]1CCCN1C(=O)CNC(=O)[C@H](Cc1ccccc1)NC(=O)[C@H](CC(N)=O)NC(=O)[C@H](CC(N)=O)NC(=O)[C@H](CO)NC(=O)[C@H](CO)NC(=O)[C@H](CCCNC(=N)N)NC(=O)[C@H](Cc1c[nH]cn1)NC(=O)[C@H](CC(C)C)NC(=O)[C@H](Cc1ccccc1)NC(=O)[C@H](CCC(=O)O)NC(=O)[C@H](C)NC(=O)[C@H](CC(C)C)NC(=O)[C@H](CCCNC(=N)N)NC(=O)[C@H](CCC(N)=O)NC(=O)[C@@H](NC(=O)[C@H](C)NC(=O)[C@@H]1CSSC[C@H](NC(=O)[C@H](CCCCN)NC(=O)CC[C@H](NC(=O)CCCCCCCCCCCCCCCCCCC(=O)O)C(=O)O)C(=O)N[C@@H](CC(N)=O)C(=O)N[C@@H]([C@@H](C)O)C(=O)N[C@@H](C)C(=O)N[C@@H]([C@@H](C)O)C(=O)N1)[C@@H](C)O)C(=O)N[C@@H](CC(C)C)C(=O)N1CCC[C@H]1C(=O)N1CCC[C@H]1C(=O)N[C@H](C(=O)N[C@@H](CC(N)=O)C(=O)N[C@H](C(=O)NCC(=O)N[C@@H](CO)C(=O)N[C@@H](Cc1c[nH]cn1)C(=O)N[C@H](C(=O)N[C@@H](Cc1ccc(O)cc1)C(N)=O)[C@@H](C)O)C(C)C)[C@@H](C)O [Example 78, N-alpha-[(S)-4-Carboxy-4-(19-carboxynonadecanoylamino)butyryl]-[Glu14,His17,Arg18,His35]-pramlintide] ({C20 diacid-γGlu}-KCNTATCATQRLAEFLHRSSNNFGPILPPTNVGSHTY-NH2; disulfide 2-7 (inferred); C-terminus assumed) | 0.0965 |  | >45 | >45 | > 200 | > 200 | 122 (≈ 549 µg/mL) |  | 122 (≈ 549 µg/mL) | 92 (≈ 414 µg/mL) | 79 (≈ 355 µg/mL) | > 200 | > 200 | > 200 | > 200 | 0.0685
